Reference: patent publication US11834401B2, “Treating and preventing diseases by modulating cell mechanics” (THE JOHNS HOPKINS UNIVERSITY, priority 2013, dated 2023)

Key:
[1] = tested on: A10.7 cells; experiment: Micropipette aspiration mechanics; type: cell-based, human; conditions: PDAC A10.7 cells
Procedure: (§1) The instrumental and experimental setups have been previously described (Effler J C, et al., 2006; Kee Y-S, et al., 2013). Micropipette aspiration assays were all carried out in growth media with 0.1% DMSO. For cortical tension measurements of Dictyostelium cells, pressure was applied to the cell cortex with a micropipette (2-3 m radius, Rp) to the equilibrium pressure (ΔP) where the length of the cell inside the pipette (Lp) was equal to Rp. The effective cortical tension (Teff) was calculated by applying the Young-Laplace equation: ΔP=2Teff(1/Rp-1/Rc), where Rc is the radius of the cell and ΔP is the equilibrium pressure when Lp=Rp (Derganc J, et al., 2000; Octtaviani E, et al., 2006). For creep tests on mammalian strains, a constant aspiration stress was applied over 60 s. The micropipette radius was 3.5-4.5 m. For quantification, the Lp/Rp ratio values was measured every two seconds and plotted as a function of time. A10.7 and HEK293 cells could only be aspirated at a low pressure range (0.15 nN/μm^2), while HPDE, ASPC-1, and HL-60 cells could be aspirated at higher pressure ranges (0.25 nN/μm^2) because they were stiffer.

[2] = tested on: HL-60 cells; experiment: Micropipette aspiration cortical tension; type: cell-based, human; conditions: 500 nM, 1 hr
Procedure: as §1

[3] = molecular target: T1, myosin IIA (Homo sapiens, UniProt P35579); experiment: Mammalian cell sedimentation assay; type: cell-based; conditions: human-derived cell lines
T1 construct: endogenous in cells; host or cells: HEK293, HPDE, ASPC-1
Procedure: (§2) Sedimentation protocol was adapted from the protocol above. 3×10^6 cells were pelleted for 5 min at 2000 rpm and washed in 1 ml PBS. The pellet was resuspended in 100 μl lysis buffer (50 mM PIPES, pH 6.8, 46 mM NaCl, 2.5 mM EGTA, 1 mM MgCl2, 1 mM ATP, 0.5% Triton X-100, and protease inhibitors—PI cocktail, PMSF, TLCK, Aprotinin). Samples were vortexed briefly and incubated on ice for 20 min, followed by centrifugation at 15,000 g for 5 min at 4° C.
(§3) Pellet was resuspended in 100 μl lysis buffer minus Triton X-100, and both pellet and supernatant fractions were heated to 100° C. for 3 min with RNaseA. Samples were incubated at 37° C. for 30 min and then heated to 100° C. in sample buffer for 5 min. Samples were loaded on a 15% SDS-polyacrylamide gel. Western blot analyses of phospho-myosin IIA was performed on whole cell lysates of cells treated as above in lysate buffer with 10 mM NaF.

[4] = molecular target: T2, myosin IIB (Homo sapiens, UniProt P35580); experiment: Mammalian cell sedimentation assay; type: cell-based
T2 construct: endogenous in cells; host or cells: HEK293, HPDE
T2 sequence (P35580 whole entry): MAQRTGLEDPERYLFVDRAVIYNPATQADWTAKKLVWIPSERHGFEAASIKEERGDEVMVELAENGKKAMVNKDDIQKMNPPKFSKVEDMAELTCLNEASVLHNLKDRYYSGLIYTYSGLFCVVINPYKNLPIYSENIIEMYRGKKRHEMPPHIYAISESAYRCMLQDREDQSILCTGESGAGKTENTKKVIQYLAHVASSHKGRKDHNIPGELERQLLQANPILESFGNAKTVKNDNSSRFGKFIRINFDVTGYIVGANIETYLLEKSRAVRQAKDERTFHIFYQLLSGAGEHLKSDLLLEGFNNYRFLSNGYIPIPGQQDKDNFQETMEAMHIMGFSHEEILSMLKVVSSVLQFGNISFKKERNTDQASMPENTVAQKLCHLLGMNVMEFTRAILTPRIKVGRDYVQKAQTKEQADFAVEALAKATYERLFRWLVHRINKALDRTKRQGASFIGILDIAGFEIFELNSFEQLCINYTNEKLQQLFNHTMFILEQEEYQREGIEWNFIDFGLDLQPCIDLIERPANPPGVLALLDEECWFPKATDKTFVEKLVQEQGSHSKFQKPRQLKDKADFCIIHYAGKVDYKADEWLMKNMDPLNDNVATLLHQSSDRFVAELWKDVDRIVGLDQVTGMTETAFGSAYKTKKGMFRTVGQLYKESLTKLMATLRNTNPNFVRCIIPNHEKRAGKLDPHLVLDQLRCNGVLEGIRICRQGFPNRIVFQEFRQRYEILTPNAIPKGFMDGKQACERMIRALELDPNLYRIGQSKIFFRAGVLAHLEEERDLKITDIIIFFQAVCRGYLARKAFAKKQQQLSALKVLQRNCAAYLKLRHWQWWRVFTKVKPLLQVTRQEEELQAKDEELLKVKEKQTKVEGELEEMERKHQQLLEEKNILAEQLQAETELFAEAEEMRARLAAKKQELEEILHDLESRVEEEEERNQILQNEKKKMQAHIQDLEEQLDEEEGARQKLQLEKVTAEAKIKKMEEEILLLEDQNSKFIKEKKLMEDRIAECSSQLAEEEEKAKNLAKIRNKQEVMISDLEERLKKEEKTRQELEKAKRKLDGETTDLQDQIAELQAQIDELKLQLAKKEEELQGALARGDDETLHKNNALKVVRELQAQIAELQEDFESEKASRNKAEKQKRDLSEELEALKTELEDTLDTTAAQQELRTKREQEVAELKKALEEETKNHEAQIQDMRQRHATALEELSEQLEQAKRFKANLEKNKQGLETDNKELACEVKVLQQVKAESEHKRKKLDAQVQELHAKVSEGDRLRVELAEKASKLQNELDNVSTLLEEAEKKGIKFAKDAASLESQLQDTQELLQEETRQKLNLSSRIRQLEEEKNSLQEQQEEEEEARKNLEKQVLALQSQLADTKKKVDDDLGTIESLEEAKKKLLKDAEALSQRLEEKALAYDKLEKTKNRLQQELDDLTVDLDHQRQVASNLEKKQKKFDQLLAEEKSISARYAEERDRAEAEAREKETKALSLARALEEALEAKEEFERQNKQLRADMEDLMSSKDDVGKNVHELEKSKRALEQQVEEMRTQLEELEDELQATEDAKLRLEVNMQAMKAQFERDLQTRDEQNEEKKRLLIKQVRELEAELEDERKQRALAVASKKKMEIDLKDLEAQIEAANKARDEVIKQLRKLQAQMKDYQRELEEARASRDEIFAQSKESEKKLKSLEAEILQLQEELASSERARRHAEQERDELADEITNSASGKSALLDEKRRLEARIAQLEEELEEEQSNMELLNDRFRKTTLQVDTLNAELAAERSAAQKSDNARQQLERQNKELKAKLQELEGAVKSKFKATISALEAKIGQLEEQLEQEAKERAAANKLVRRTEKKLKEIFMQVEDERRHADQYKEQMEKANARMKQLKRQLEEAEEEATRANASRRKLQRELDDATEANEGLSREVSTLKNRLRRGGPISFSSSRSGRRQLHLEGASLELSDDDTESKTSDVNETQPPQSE
Procedure: as §2, §3

[5] = molecular target: T3, myosin IIC (Homo sapiens, UniProt Q7Z406); experiment: Mammalian cell sedimentation assay; type: cell-based
T3 construct: endogenous in cells; host or cells: HEK293, ASPC-1, HPDE
T3 sequence (Q7Z406 whole entry): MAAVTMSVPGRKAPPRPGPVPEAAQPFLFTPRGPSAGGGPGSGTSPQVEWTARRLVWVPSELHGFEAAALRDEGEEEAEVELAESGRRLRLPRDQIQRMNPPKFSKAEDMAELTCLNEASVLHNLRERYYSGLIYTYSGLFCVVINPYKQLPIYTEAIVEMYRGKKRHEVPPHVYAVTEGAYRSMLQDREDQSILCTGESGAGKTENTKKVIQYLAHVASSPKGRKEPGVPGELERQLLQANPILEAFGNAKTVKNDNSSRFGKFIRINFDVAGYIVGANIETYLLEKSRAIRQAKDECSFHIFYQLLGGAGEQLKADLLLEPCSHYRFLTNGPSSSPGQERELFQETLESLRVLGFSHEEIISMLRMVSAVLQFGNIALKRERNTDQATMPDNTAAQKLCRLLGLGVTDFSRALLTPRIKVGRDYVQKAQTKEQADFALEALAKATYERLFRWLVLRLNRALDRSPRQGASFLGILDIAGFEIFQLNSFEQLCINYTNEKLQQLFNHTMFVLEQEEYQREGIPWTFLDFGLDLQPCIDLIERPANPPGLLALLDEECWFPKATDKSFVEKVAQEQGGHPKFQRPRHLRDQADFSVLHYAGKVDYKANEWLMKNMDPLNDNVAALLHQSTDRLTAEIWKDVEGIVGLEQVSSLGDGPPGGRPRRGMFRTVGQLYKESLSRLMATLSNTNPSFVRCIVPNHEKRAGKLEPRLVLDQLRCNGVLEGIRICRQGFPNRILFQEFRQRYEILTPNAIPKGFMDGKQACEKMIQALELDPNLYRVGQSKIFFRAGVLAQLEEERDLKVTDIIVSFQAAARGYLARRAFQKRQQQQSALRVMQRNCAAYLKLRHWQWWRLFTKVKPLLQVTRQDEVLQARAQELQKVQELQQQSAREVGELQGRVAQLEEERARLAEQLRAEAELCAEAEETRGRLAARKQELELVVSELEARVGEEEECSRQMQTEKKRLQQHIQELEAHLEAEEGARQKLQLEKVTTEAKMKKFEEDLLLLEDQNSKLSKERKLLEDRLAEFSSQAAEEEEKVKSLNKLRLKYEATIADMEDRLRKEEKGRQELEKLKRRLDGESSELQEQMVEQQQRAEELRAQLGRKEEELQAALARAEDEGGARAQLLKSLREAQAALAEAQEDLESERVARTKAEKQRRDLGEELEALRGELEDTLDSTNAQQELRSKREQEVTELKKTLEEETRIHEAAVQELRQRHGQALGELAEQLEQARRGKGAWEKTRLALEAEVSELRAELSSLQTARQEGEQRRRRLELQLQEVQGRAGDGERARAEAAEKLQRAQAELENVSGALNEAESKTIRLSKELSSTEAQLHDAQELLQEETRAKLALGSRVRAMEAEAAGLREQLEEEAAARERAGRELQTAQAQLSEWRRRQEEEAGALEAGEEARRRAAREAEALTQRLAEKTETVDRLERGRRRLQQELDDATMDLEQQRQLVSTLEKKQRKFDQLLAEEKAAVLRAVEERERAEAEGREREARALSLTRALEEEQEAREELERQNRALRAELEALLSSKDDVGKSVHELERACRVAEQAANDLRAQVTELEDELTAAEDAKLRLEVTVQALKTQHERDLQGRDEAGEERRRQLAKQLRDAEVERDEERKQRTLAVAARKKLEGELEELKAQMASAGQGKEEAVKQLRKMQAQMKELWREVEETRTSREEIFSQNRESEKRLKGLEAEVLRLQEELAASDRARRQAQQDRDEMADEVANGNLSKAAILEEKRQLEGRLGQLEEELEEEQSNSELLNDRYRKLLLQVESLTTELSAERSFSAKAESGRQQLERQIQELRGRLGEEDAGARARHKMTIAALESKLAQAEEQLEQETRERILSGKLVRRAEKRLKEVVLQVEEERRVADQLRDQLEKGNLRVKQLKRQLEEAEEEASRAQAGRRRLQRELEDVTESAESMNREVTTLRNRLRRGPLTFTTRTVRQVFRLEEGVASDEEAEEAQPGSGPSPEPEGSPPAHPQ
Procedure: as §2, §3

[6] = tested on: ASPC-1 cells; experiment: Viability assay; type: cell-based, human; conditions: 50 nM, 500 nM
[7] = tested on: ASPC-1 cells; experiment: Transwell migration assay; type: cell-based, human; conditions: 24 hr transwell
Procedure: Cells were starved with serum-reduced media for 24 hr, harvested from flasks with trypsin/EDTA, washed with media containing 1% FBS, and resuspended at cell density of 2-5×10^5 cells/ml. 0.2 ml of cells were placed in the upper chamber of transwell (BD Biosciences), with 20% FBS-containing media in the lower well and incubated at 37° C. for 24 hr. Both sides of the transwell contained 4-HAP at the appropriate concentration, with final DMSO concentration at 0.0025%. The transwells were MeOH-fixed and stained with 0.5% crystal violet for 20 min, followed by counting from six random microscopic fields.

[8] = tested on: AsPC-1 shCTRL and shIIA cells; experiment: Transwell migration of knockdown lines; type: cell-based, human
Procedure: AsPC-1 cells were plated in 6.5-mm PET membrane transwell inserts with 8-μm pores (Costar #3464) in a 24-well plate at a concentration of 5,000 cells per well. Cells were allowed to adhere overnight in AsPC-1 media. Cell media was then changed to serum-free RPMI 1640 to starve cells for 18 hrs. Following starvation, cells were stimulated by changing media in the top chamber to fresh serum-free RPMI 1640±500 nM 4-HAP and complete AsPC-1 media ±500 nM 4HAP. Cells were then incubated for 24 hrs at 37 degrees C./5% CO2 and then fixed in 4% paraformaldehyde, permeabilized in 0.1% Triton X-100 and stained with 1 μg/ml DAPI. […] A total of five random fields per transwell insert were imaged using a 10× objective (NA) and nuclei were averaged.

`CC(=O)c1ccc(O)cc1` [4-HAP, 4-hydroxyacetophenone] was tested, and the cortical tension [1] was “decreases the cortical tension”, the cortical tension [2] was “does not alter the cortical tension” and the “assembled myosin IIA” value [3] was “showed little change”. The “assembled myosin IIB” value ([4]; HEK293 cells, 500 nM, 1 hr) was “increases in assembled myosin IIB and IIC”, the “assembled myosin IIB” value ([4]; HPDE cells) was “showed a shift in assembly” and the “assembled myosin IIC” value ([5]; ASPC-1 cells, 500 nM, 1 hr) was “increases assembled myosin IIC”. For the same molecule, the “assembled myosin IIC” value ([5]; HEK293 cells, 500 nM, 1 hr) was “increases in assembled myosin IIB and IIC”, the “assembled myosin IIC” value ([5]; wild type HPDE cells) was “increases assembled myosin IIC” and the “viability vs DMSO control” value [6] was “no difference over DMSO control”. For the same molecule, the in vitro migration [7] was “dose-dependent decrease” and the transwell migration [8] was “moderate dose-dependence reduction of transwell migration”.
